Experimental data published in patent US20070207980A1, “Chp-gemcitabine Combination Agents And Their Use As Anti-Tumor Agents” (priority 2003, published 2007).

What was measured:
[1] = tested on: PANC-1 cells; assay: Effect of combined agents releasing gemcitabine first (Table 2); conditions: no gemcitabine first
Method: (§2) The chemosensitivity assay was performed in a 96-well microtiter plate with 10^4 cells per well and 100 μl of medium, and the components to be tested were supplied in a volume of 100 μl. All components were diluted on the microtiter plates, and the plates were incubated under cell culture conditions for 4 days, except for those tests wherein the ratio between application time and reaction was to be determined. The viability of the cells, including the mitochondrial activity, i.e., the ratio of cell survival rate and cell number, was determined using an MTT assay.
(§3) Combined agents of the invention sequentially releasing CHP and gemcitabine were also tested. […] Agents were used in cell cultures, which agents initially release CHP, followed by gemcitabine after 24 hours and 48 hours, respectively. […] Combined agents were used which released 1 μg/ml gemcitabine, followed by CHP after 12, 24 and 48 hours, respectively.

[2] = tested on: MIAPaCa2; assay: Cell line screening of CHP anti-proliferation activity (chemosensitivity MTT assay); type: cell-based; conditions: Pancreas cell lines
Method: (§1) Unless otherwise stated, cell lines from the American Type Culture Collection (ATCC, Rockville, Md.) were used and cultured to confluence in a monolayer in RPMI-1640 bicarbonate medium (Seromed, Berlin, Germany) in an incubator ([…], 37° C.). The cells were examined for mycoplasma contaminations. The medium included 10% heat-inactivated fetal calf serum (Seromed) and 4 mM glutamine. The cells were cultured and passaged according to standard procedures (0.03% trypsin with 0.02% EDTA, 3 times a week) . The cell number was determined using a TOA Sysmex micro-cell counter (TOA, Tokyo, Japan).

[3] = tested on: Capanl; assay: as above; type: cell-based; conditions: Pancreas cell lines
Method: as §1

[4] = tested on: PC3; assay: as above; type: cell-based; conditions: Prostate tissue
Method: as §1

[5] = tested on: ACHN; assay: as above; type: cell-based; conditions: Renal cell lines
Method: as §1

[6] = tested on: SW480 (Ccl228); assay: as above; type: cell-based; conditions: Colon cell lines
Method: as §1

[7] = tested on: Me128; assay: as above; type: cell-based; conditions: Melanoma
Method: as §1

[8] = tested on: Colo205; assay: as above; type: cell-based; conditions: Colon cell lines
Method: as §1

[9] = tested on: HT29; assay: as above; type: cell-based; conditions: Colon cell lines
Method: as §1

[10] = tested on: BxPC3; assay: as above; type: cell-based; conditions: Pancreas cell lines
Method: as §1

[11] = tested on: MDA-MBA231; assay: as above; type: cell-based; conditions: Breast tissue
Method: as §1

[12] = tested on: Fib2 (PPH); assay: as above; type: cell-based; conditions: Fibroblasts
Method: as §1

[13] = tested on: A518; assay: as above; type: cell-based; conditions: Melanoma
Method: as §1

[14] = tested on: K562; assay: as above; type: cell-based; conditions: Leukemia cells
Method: as §1

[15] = tested on: Fib3 (PPH); assay: as above; type: cell-based; conditions: Fibroblasts
Method: as §1

[16] = tested on: SW620(Ccl227); assay: as above; type: cell-based; conditions: Colon cell lines
Method: as §1

[17] = tested on: A498; assay: as above; type: cell-based; conditions: Renal cell lines
Method: as §1

[18] = tested on: ASPC1; assay: as above; type: cell-based; conditions: Pancreas cell lines
Method: as §1

[19] = tested on: Calc22; assay: as above; type: cell-based; conditions: Osteoblasts
Method: as §1

[20] = tested on: CR02; assay: as above; type: cell-based; conditions: Carcinoids
Method: as §1

[21] = tested on: WI38; assay: as above; type: cell-based; conditions: Fibroblasts
Method: as §1

[22] = tested on: CR01; assay: as above; type: cell-based; conditions: Carcinoids
Method: as §1

[23] = tested on: HOS; assay: as above; type: cell-based; conditions: Osteosarcoma tissue
Method: as §1

[24] = tested on: Colo320DM; assay: as above; type: cell-based; conditions: Colon cell lines
Method: as §1

[25] = tested on: PANC1; assay: as above; type: cell-based; conditions: Pancreas cell lines
Method: as §1

[26] = tested on: MCF-7; assay: as above; type: cell-based; conditions: Breast tissue
Method: as §1

[27] = tested on: T47D; assay: as above; type: cell-based; conditions: Breast tissue
Method: as §1

[28] = tested on: DLD1; assay: as above; type: cell-based; conditions: Colon cell lines
Method: as §1

[29] = tested on: JVSO; assay: as above; type: cell-based; conditions: Melanoma
Method: as §1

[30] = tested on: HCT-15; assay: as above; type: cell-based; conditions: Colon cell lines
Method: as §1

[31] = tested on: B607; assay: as above; type: cell-based; conditions: Melanoma
Method: as §1

[32] = tested on: BxPC3; assay: Effect of combined agents releasing gemcitabine first (Table 2); conditions: no gemcitabine first
Method: as §2, §3

Structure (SMILES): O=C(O)[C@@H]1C[C@@H](O)CN1 (relative stereo) [CHP, cis-hydroxyproline]
- PANC-1 control ([1]; CHP 3 μg/ml): 98.8 ± 4.0
- PANC-1 control ([1]; CHP 6.1 μg/ml): 96.0 ± 6.0
- PANC-1 control ([1]; CHP 12.5 μg/ml): 90.8 ± 4.1
- PANC-1 control ([1]; CHP 25 μg/ml): 95.9 ± 5.1
- PANC-1 control ([1]; CHP 50 μg/ml): 94.8 ± 6.4
- PANC-1 control ([1]; CHP 100 μg/ml): 95.1 ± 2.3
- Reaction (CHP anti-proliferation activity) [2]: −45.7%
- Reaction (CHP anti-proliferation activity) [3]: −66%
- Reaction (CHP anti-proliferation activity) [4]: resistant
- Reaction (CHP anti-proliferation activity) [5]: resistant
- Reaction (CHP anti-proliferation activity) [6]: −58%
- Reaction (CHP anti-proliferation activity) [7]: resistant
- Reaction (CHP anti-proliferation activity) [8]: −66%
- Reaction (CHP anti-proliferation activity) [9]: −48%
- Reaction (CHP anti-proliferation activity) [10]: −41%
- Reaction (CHP anti-proliferation activity) [11]: resistant
- Reaction (CHP anti-proliferation activity) [12]: resistant
- Reaction (CHP anti-proliferation activity) [13]: resistant
- Reaction (CHP anti-proliferation activity) [14]: −11%
- Reaction (CHP anti-proliferation activity) [15]: −14%
- Reaction (CHP anti-proliferation activity) [16]: −66.4%
- Reaction (CHP anti-proliferation activity) [17]: −6%
- Reaction (CHP anti-proliferation activity) [18]: −42%
- Reaction (CHP anti-proliferation activity) [19]: +8%
- Reaction (CHP anti-proliferation activity) [20]: −13%
- Reaction (CHP anti-proliferation activity) [21]: resistant
- Reaction (CHP anti-proliferation activity) [22]: −35%
- Reaction (CHP anti-proliferation activity) [23]: −68%
- Reaction (CHP anti-proliferation activity) [24]: −11%
- Reaction (CHP anti-proliferation activity) [25]: −54%
- Reaction (CHP anti-proliferation activity) [26]: −43%
- Reaction (CHP anti-proliferation activity) [27]: −34%
- Reaction (CHP anti-proliferation activity) [28]: −19.8%
- Reaction (CHP anti-proliferation activity) [29]: −15%
- Reaction (CHP anti-proliferation activity) [30]: −10%
- Reaction (CHP anti-proliferation activity) [31]: −12%
- BxPC3 control ([32]; CHP 6.1 μg/ml): 103.5 ± 2.6
- BxPC3 control ([32]; CHP 12.5 μg/ml): 102.6 ± 1.7
- BxPC3 control ([32]; CHP 25 μg/ml): 99.9 ± 3.1
- BxPC3 control ([32]; CHP 50 μg/ml): 99.8 ± 4.3
- BxPC3 control ([32]; CHP 100 μg/ml): 105.2 ± 5.4
